Laboratory results taken from patent US7723091B2 (priority 1999, dated 2010).
Where two headings read alike, the source gives them in different places. Marks after values point to notes of the source that are not given here.

Legend:
[1] = tested on: Eimeria acervulina sporozoites; assay: In vitro invasion of BHK cells by Eimeria acervulina sporozoites; assay type: cell-based
Description: (§1) Eineria acervulina sporozoites or Eimeria tenella sporozoites and cultured baby hamster kidney (BHK) cells were prepared by published methods. See Augustine, Avian and Poultry Biology Reviews 1:113-122, 2000. For cell pretreatment, cell cultures were overlaid with dilutions of enzymes as described in Table 11, and examined for morphological changes from 5 to 45 min post overlay. After 45 minutes, the monolayer cultures were washed twice, then inoculated with untreated E. acervulina or E. tenella sporozoites. For application during infection, sporozoites were suspended in the appropriate dilution of the enzyme and inoculated immediately into the cell cultures. After 45 minutes incubation, cultures were fixed, stained, and the invasion was quantified.
(§2) Observations were made looking for changes in gross morphology of sporozoites or cells due to enzyme treatment. At the enzyme levels used in these experiments, no morphological change was noted. The sporozoite invasion of the cultured cells was measured after the two methods of enzyme treatment, as well as without enzyme treatment, by histological staining and microscopy procedures. See Augustine, supra.

[2] = tested on: E. acervulina and Clostridium perfringens; assay type: in vivo, broiler chickens
[3] = tested on: Eimeria tenella sporozoites; assay: In vitro invasion of BHK cells by Eimeria tenella sporozoites; assay type: cell-based
Description: as §1, §2

[4] = tested on: E. acervulina, E. maxima, and C. perfringens; assay type: in vivo, broiler chickens; conditions: Trial III; for Feed Consumption Day 0-21 / Feed Consumption Day 8-21 / Feed Conversion Day 0-21 / Feed Conversion Day 8-21 / Lesion Scores E. acer. / Lesion Scores E. max. / Live Wt. Day 21 / Weight AF/G Treatment (weight adjusted feed conversion) / Weight Gain Day 0-21 / Weight Gain Day 8-21: infected
[5] = Application of Enzyme During Infection, Test 1, recombinant PI-PLC 0.0261 U/mL
[6] = Application of Enzyme During Infection, Test 2, B. cereus PI-PLC 0.0403 U/mL, recombinant 0.261 U/mL, listed as PI-PLC from Recombinant B. megateriaum
[7] = Application of Enzyme During Infection, Test 2, recombinant PI-PLC 0.0261 U/mL
[8] = Cell Pretreatment with Enzyme Followed by Wash, Test 1, B. cereus PI-PLC 0.0403 U/mL, recombinant 0.261 U/mL, mannanase 5100 U/mL, listed as PI-PLC from Recombinant B. megateriaum
[9] = Cell Pretreatment with Enzyme Followed by Wash, Test 2, B. cereus PI-PLC 0.0403 U/mL, recombinant 0.261 U/mL, mannanase 5100 U/mL, listed as PI-PLC from Recombinant B. megateriaum
[10] = Cell Pretreatment with Enzyme Followed by Wash, Test 2, recombinant PI-PLC 0.0261 U/mL
[11] = Trial II T4 (Rec), T7 (Wt), infected, 10 U/lb
[12] = Trial II T9, no infection challenge, 90 U/lb
[13] = PI-PLC 10 U/lb (T5; T7 with mannanase 100 MU/ton)
[14] = PI-PLC 30 U/lb (T6; T8 with mannanase 100 MU/ton; T10 with medication)

Substance: phosphatidylinositol specific phospholipase C [Recombinant PI-PLC]
- Invasion counts (mean ± standard error of the mean) ([1]; Application of Enzyme During Infection, Test 1, B. cereus PI-PLC 0.0403 U/mL, recombinant 0.261 U/mL, listed as PI-PLC from Recombinant B. megateriaum): 16 ± 2^c
- Invasion counts (mean ± standard error of the mean) [1, 5]: 36 ± 3^b
- Invasion counts (mean ± standard error of the mean) [1, 6]: 18 ± 1^bc
- Invasion counts (mean ± standard error of the mean) [1, 7]: 9 ± 2^c
- Invasion counts (mean ± standard error of the mean) [1, 8]: 14 ± 1^b
- Invasion counts (mean ± standard error of the mean) ([1]; Cell Pretreatment with Enzyme Followed by Wash, Test 1, recombinant PI-PLC 0.0261 U/mL): 18 ± 1^ab
- Invasion counts (mean ± standard error of the mean) [1, 9]: 22 ± 1^b
- Invasion counts (mean ± standard error of the mean) [1, 10]: 26 ± 1^ab
- 8-21 Day Feed Conversion (Corrected) ([2]; Trial II T3, infected, 3 U/lb): 1.702
- 8-21 Day Weight Gain ([2]; Trial II T3, infected, 3 U/lb): 323.24
- Average Intestinal Lesion Score ([2]; Trial II T3, infected, 3 U/lb): 1.120
- 8-21 Day Feed Conversion (Corrected) [2, 11]: 1.732
- 8-21 Day Weight Gain [2, 11]: 324.78
- Average Intestinal Lesion Score [2, 11]: 1.133
- 8-21 Day Feed Conversion (Corrected) ([2]; Trial II T5, infected, 30 U/lb): 1.699
- 8-21 Day Weight Gain ([2]; Trial II T5, infected, 30 U/lb): 320.64
- Average Intestinal Lesion Score ([2]; Trial II T5, infected, 30 U/lb): 0.842
- 8-21 Day Feed Conversion (Corrected) ([2]; Trial II T6, infected, 90 U/lb): 1.739
- 8-21 Day Weight Gain ([2]; Trial II T6, infected, 90 U/lb): 328.29
- Average Intestinal Lesion Score ([2]; Trial II T6, infected, 90 U/lb): 0.808
- 8-21 Day Feed Conversion (Corrected) [2, 12]: 1.650
- 8-21 Day Weight Gain [2, 12]: 338.8
- Average Intestinal Lesion Score [2, 12]: 0.847
- effect of varying concentrations on intestinal lesion score, feed conversion and weight gain ([2]; Trial II, T3-T6 (3-90 U/lb)): dose-dependent effect on lowering the intestinal lesion score and feed conversion (T3-T6) and increasing weight gain
- Invasion counts (mean ± standard error of the mean) ([3]; Application of Enzyme During Infection, Test 1, B. cereus PI-PLC 0.0403 U/mL, recombinant 0.261 U/mL, mannanase 5100 U/mL, listed as PI-PLC from Recombinant B. megateriaum): 28 ± 2^b
- Invasion counts (mean ± standard error of the mean) [3, 5]: 18 ± 1^c
- Invasion counts (mean ± standard error of the mean) [3, 6]: 39 ± 4^ab
- Invasion counts (mean ± standard error of the mean) [3, 7]: 29 ± 1^b
- Invasion counts (mean ± standard error of the mean) [3, 8]: 30 ± 1^c
- Invasion counts (mean ± standard error of the mean) [3, 9]: 15 ± 0^a
- Invasion counts (mean ± standard error of the mean) [3, 10]: 17 ± 1^a
- improvement in AF/G worsening present in the infected control (T3 v. T1) ([4]; infected birds, mannanase 100 MU per ton, PI-PLC in the feed): 33-41%
- Feed Consumption Day 0-21 [4, 13]: 10.456^cd
- Feed Consumption Day 8-21 [4, 13]: 8.228^abc
- Feed Conversion Day 0-21 [4, 13]: 1.560^bc
- Feed Conversion Day 8-21 [4, 13]: 1.591b^c
- Lesion Scores E. acer. [4, 13]: 1.34^a
- Lesion Scores E. max. [4, 13]: 1.19^bc
- Live Wt. Day 21 [4, 13]: 0.635^c
- Weight AF/G Treatment (weight adjusted feed conversion) [4, 13]: 1.512
- Weight Gain Day 0-21 [4, 13]: 0.594^c
- Weight Gain Day 8-21 [4, 13]: 0.477^b
- Feed Consumption Day 0-21 [4, 14]: 10.266^d
- Feed Consumption Day 8-21 [4, 14]: 7.982^c
- Feed Conversion Day 0-21 [4, 14]: 1.572^b
- Feed Conversion Day 8-21 [4, 14]: 1.621^ab
- Lesion Scores E. acer. [4, 14]: 1.16^ab
- Lesion Scores E. max. [4, 14]: 1.13^cd
- Live Wt. Day 21 [4, 14]: 0.638^c
- Weight AF/G Treatment (weight adjusted feed conversion) [4, 14]: 1.526
- Weight Gain Day 0-21 [4, 14]: 0.597^c
- Weight Gain Day 8-21 [4, 14]: 0.483^b
